Like-named read-outs stand apart in the source and are kept apart here.

Broadly, the IC50 is the concentration that gives 50% inhibition.

The subject of data set [1] is P. falciparum 3D7 (sensitive strain). As to the kind of experiment: In vitro antimalarial activity, 3-day inhibition assay. The data set is classed as cell-based, Plasmodium falciparum. The conditions noted are these: Giemsa smears. On the procedure: (§1) Blood stages of the laboratory clones P. falciparum 3D7 (sensitive strain), P. falciparum 803 (artemisinin-resistant strain), and P. falciparum Dd2 (chloroquine-resistant strain) were cultured in vitro according to the method of Trager and Jensens with minor modifications ([37]). Briefly, cultures were maintained in O-positive human erythrocytes (RBCs) as host cells at 2% hematocrit and maintained in complete medium (CM) [RPMI-1640 culture medium supplemented with NaHCO3 (2 mg/mL), hypoxanthine (50 µg/mL), HEPES (5.96 mg/mL), albumax II (1%), and gentamicin (40 µg/mL)]. The cultures were diluted to 1% parasitemia and 2% hematocrit in CM and incubated in a humidified atmosphere with 5% O2, 5% CO2, and 90% N2 at 37°C. Prior to experiments, the cultures were highly synchronized for ring stages using 5% sorbitol twice at a 40-h interval. Briefly, ring stage cultures were centrifuged and the pellet was washed once in incomplete medium (ICM, RPMI-1640 without addition). Then, the pellet was resuspended in 5% sorbitol and incubated at 37°C for 10 min. After incubation, the suspension was centrifuged and the pellet was washed once and resuspended in medium. The development of the parasite was observed using light microscopy, and parasitemia was determined by counting at least 10,000 RBCs on Giemsa’s solution-stained thin blood smears.
Highly synchronous ring stage parasites were used to investigate the in vitro antimalarial activity of the peptides. For preliminary screening of in vitro antimalarial activity, a 3-day inhibition assay was used to test the antimalarial activity of An-cecA, An-cecB, and An-cecC. […] For IC50 assay, a series of concentrations of peptides were added to the parasite culture. The concentrations of An-cecB were 5, 15, 20, 25, 30, 35, and 40 µM, while those of An-cecB-1 were 20, 30, 40, 50, 60, 70, 80, and 90 µM. After 72 hours of incubation, the antimalarial effects of peptides were estimated. Thin blood films stained with Giemsa’s solution were counted under a microscope. The parasitemia of cultures treated with peptides was compared with that of control. IC50 was calculated by GraphPad Prism.

Data set [2] relates to P. falciparum 803 (artemisinin-resistant strain). Briefly: In vitro antimalarial IC50 assay. Particulars: strain 803, 72 h incubation, Giemsa smears. The data set is classed as cell-based, Plasmodium falciparum. As to the method: as §1, with “Then, the pellet was resuspended in 5% sorbitol and incubated at 37°C for 10 min. After incubation, the suspension was centrifuged and the pellet was washed once and resuspended in medium.” left out
(§2) Highly synchronous ring stage parasites were used to investigate the in vitro antimalarial activity of the peptides. […] Thin blood films stained with Giemsa’s solution were counted under a microscope. […] IC50 was calculated by GraphPad Prism.

Data set [3] concerns P. falciparum Dd2 (chloroquine-resistant strain). As to the kind of experiment: In vitro antimalarial IC50 assay. The data set is classed as cell-based, Plasmodium falciparum. Particulars: strain Dd2, 72 h incubation, Giemsa smears. As to the method: as §1, with “Then, the pellet was resuspended in 5% sorbitol and incubated at 37°C for 10 min. After incubation, the suspension was centrifuged and the pellet was washed once and resuspended in medium.” left out
as §2

The test system of data set [4] is P. falciparum 3D7 ring, trophozoite and schizont stages. As to the kind of experiment: Stage-specific parasite inhibition assay. In kind it is cell-based, Plasmodium falciparum. The conditions noted are these: 40 µM for 12 hours at ring, trophozoite or schizont stage; reinvasion parasitemia at 50 hpi and after 1:40 dilution and 4 days. As to the method:
The activity of An-cecB against different blood stage parasites was evaluated. Parasites were exposed to An-cecB at a lethal concentration of 40 µM for 12 hours at the ring stage [[…] (hours post invasion)], trophozoite stage (17–29 hpi), and schizont stage (29–41 hpi) (Fig. 2a). […] Parasites were then washed and cultured for 4 days […].
To analyze the stage-specific parasite inhibition, highly synchronized ring-stage parasites of the 3D7 strain were cultured in 48-well plates with a starting parasitemia of 0.5% ~ 1% at a hematocrit of 2%. The tested peptide at a concentration of 40 µM was added to ring stage parasites (5 hpi), trophozoites (17 hpi), and schizonts (29 hpi). After treatment for 12 hours, the parasites were washed three times to remove the peptide and the re-invaded parasites (50 hpi) were analyzed. The parasitemia (50hpi) was diluted 1:40 by new RBCs and cultured for a further 4 days. CM was used as a blank control. Parasitemia was counted under a microscope.

The nature of data set [5]: Acute oral toxicity test in mice. In kind it is in vivo, BALB/c mice. Particulars: for survival number: n = 6, 14 days; for Body weight Day0 / Body weight Day7 / Body weight Day14: n = 6, in g (unit assumed). As to the method:
Mice were housed under standard conditions at a temperature of 24 ± 2°C and a humidity of 50%–80%. Lighting was alternated between day and night every 12 hours. All mouse groups consisted of six animals per cage, and these were fed ad libitum with SPF-grade stock diet and water. All the experimental mice were adapted to the animal room for 1 to 2 weeks before the experiment.
For the acute toxicity test, the mice were divided into four groups. Each group contained six mice. Mice were fasted for 2 hours before feeding with a single oral dose of peptide. The mice in each group were fed with peptide at a single oral dose of 500, 200, and 100 mg/kg body weight. Normal saline (1 mL) was used as control. The general behavior of each mouse was observed continuously for the first 1 hour, then intermittently every 4 hours, and thereafter over a period of 24 hours ([43]).

The subject of data set [6] is healthy erythrocytes (human RBCs).
Description: Hemolysis assays were performed using human RBCs according to previous reports ([38]). Briefly, serial dilutions of peptides were incubated with 2% hematocrit RBCs (in PBS) at 37°C for three different time points (15, 30, and 60 min) in triplicates. After incubation, the RBCs were centrifuged for 10 min at 1,000 × g and the absorbance of the supernatants at 540 nm was read by a spectrophotometer to assess the level of the released hemoglobin. Maximum hemolysis was determined by substituting the sample with 1% Triton X-100, which completely lyses the cells. […] Hemolysis of peptides was calculated using the following formula: Hemolysis (%) = (A540 of peptide- A540 of PBS) * 100/A540 of Triton X-100. Two independent tests with three technical replicates were performed for each hemolysis assay.

In data set [1] (50 µM peptide, 72 h, ring stage, 1% parasitemia, 2% hematocrit), “APRWKFGKRLEKLGRNVFRAA KKALPVIAGYKAL-NH2 [An-cecB]” showed an inhibition rate of 100%. In addition, the IC50 is 12.4 µM in data set [1] (3D7, 72 h incubation, GraphPad Prism, two independent assays, three technical replicates); 9.89 µM in data set [2]; 12.8 µM in data set [3]. Further, in data set [4], the “activity against different blood stage parasites” value is on record as “All parasite stages were killed”. The survival number came out at 6 in data set [5] (single oral dose 100 mg/kg); 6 in data set [5] (single oral dose 200 mg/kg); 5 in data set [5] (single oral dose 500 mg/kg, one mouse died on Day8). Further, the entries for the “Body weight Day0” value in data set [5] (single oral dose 100 mg/kg), in data set [5] (single oral dose 200 mg/kg) and in data set [5] (single oral dose 500 mg/kg) were 20.45±1.56, 20.45±1.56 and 19.55±2.01, respectively. Also, the “Body weight Day7” value amounted to 20.9±1.62 in data set [5] (single oral dose 100 mg/kg) and 19.25±1.8 in data set [5] (single oral dose 200 mg/kg). The “Body weight Day14” value in data set [5] (single oral dose 100 mg/kg) is 21.98±0.91; in data set [5] (single oral dose 200 mg/kg, P < 0.01 vs control) it was 18.4±2.1; in data set [5] (single oral dose 500 mg/kg, P < 0.01 vs control), 16.54±3.24. For the same sequence, the hemolysis rate entry in data set [6] (10 µM) was “less than 2%”; in data set [6] (20 µM), “less than 2%”; in data set [6] (40 µM), “less than 5%”.
